Test results taken from article PMC3169616, “Unique Residues Involved in Activation of the Multitasking Protease/Chaperone HtrA from Chlamydia trachomatis” (PLoS ONE, 2011).
No end group written: not given here. *: point of attachment. pNA = O=[N+]([O-])c1ccc(N*)cc1

Columns and labels:
CtHtrA [1] = target: T1, CtHtrA (Chlamydia trachomatis serovar D, UniProt P18584); experiment: Protease assay and kinetic analysis with pNA-labelled peptide substrates; type: biochemical; settings: pNA peptide as substrate, absorbance 405 nm, 37°C; for Vmax: reading every 10 s for 30 min
T1 construct: His-tag; made in house; host or cells: E. coli BL21 (DE3), plasmid pETHtrA
T1 sequence (P18584 17-497): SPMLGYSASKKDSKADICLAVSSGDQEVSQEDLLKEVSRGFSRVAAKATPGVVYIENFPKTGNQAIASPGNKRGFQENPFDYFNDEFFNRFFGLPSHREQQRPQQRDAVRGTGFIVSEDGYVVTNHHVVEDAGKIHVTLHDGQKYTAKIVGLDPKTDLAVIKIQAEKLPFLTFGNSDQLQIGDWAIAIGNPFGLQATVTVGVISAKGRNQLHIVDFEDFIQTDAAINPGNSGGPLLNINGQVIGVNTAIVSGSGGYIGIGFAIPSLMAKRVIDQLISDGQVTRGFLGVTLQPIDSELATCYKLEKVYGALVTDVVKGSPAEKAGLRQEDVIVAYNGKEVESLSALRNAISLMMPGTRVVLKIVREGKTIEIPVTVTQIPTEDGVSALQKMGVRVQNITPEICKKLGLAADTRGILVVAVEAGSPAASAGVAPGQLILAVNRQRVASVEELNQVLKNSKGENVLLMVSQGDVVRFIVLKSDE
Experimental: A series of peptide substrates were then designed based on the cleavage sites previously identified in ß-casein [3], PICS results, previously published substrates for E. coli DegP [22], and the REPLi library screening results. These peptides were assayed against CtHtrA and kinetic analysis was conducted (Table 2). […] Generally, peptides with only 4 residues or less were not cleaved. […] The preference for K at P3 implies a salt bridge may be involved in substrate coordination in the CtHtrA active site in the substrate pocket or subsite S3. In a direct comparison between MFRLI-pNA and MFQLI-pNA, R was clearly the most preferred. […] The Km for each of these, however, was at least an order of magnitude higher than the Km for MFKLI-pNa. The results from individually synthesised peptides (Table 2) and the peptides sourced from the REPLi library (Table 1) were consistent in that non-polar sequences are most preferred. […] (Fig. S3).
The purified recombinant protein was examined by Coomassie stained polyacrylamide gels and activity was checked using ß-casein cleavage assays prior to use in peptide assays. Briefly, this involved incubating 2 µg of the protease with 10 µg of ß-casein in 50 mM Tris pH 7.0, 20 mM MgCl2 for 2 h prior to examining the assays by SDS PAGE (ß-casein and protease only controls were always conducted). Protease assays using peptides were conducted using custom synthesised peptides (Mimotopes). The peptides were purified to 95% purity (or greater) and were typically resuspended in 50% isopropanol, although some peptides required 100% DMSO. Protease assays using pNA labelled peptides were conducted using the xMARK Microplate spectrophotometer (Bio-Rad) at 405 nm, incubated at 37°C, with a reading taken every 10 s for 30 min. The maximum slope over a minimum of 8 readings was used for the data analysis. Other peptides were labelled with 7-methoxycoumarin-4-acetic acid (MCA, fluorophore) and 2,4-dinitrophenyl (DNP, quencher). The protease assays using these peptides were conducted in black plates at 37°C using the POLARstar Optima (BMG Labtech). The assays were excited at 340 nm and emission was detected at 405 nm with a gain of 1000, the assays were monitored every 20 s or at the minimum cycle time for up to 40 min. The Omega software was used to calculate the maximum rate from a minimum of 6 time points for each assay. The REPLi library of peptides (Mimotopes, Melbourne, Australia) was also assayed with CtHtrA in the POLARstar Optima using similar assay conditions to those described above. Substrate only and protease only assay controls were conducted for every experiment and protease assays were typically conducted in triplicate on at least two different days. The assay results shown are the maximal rate observed from three or more different assays and adjusted for protein concentration. The assay results shown for the fluorescent compounds have been normalised for the amount of fluorescent emission detected using a standard curve of known concentrations of the MCA fluorophore under the identical assay conditions. All of the peptides used in this work were synthesised commercially to 95% purity or greater (Mimotopes, Melbourne, Australia). All protease assays were conducted minimally in duplicate on three separate occasions.

CtHtrA [2] = target: T1, CtHtrA; experiment: MS and MS-MS analysis of peptide cleavage products; type: biochemical; settings: peptide 150 µM digested with CtHtrA (71 µg); sites MCA-ENLH↓LPLPI↓IF-DNP
Experimental: Bcas1 and Act1 peptides (150 µM concentration) digested with CtHtrA (71 µg) were analysed by online LC/MS/MS using a QStar Pulsar I (Applied Biosystems) in […] mode. Data acquired were converted into mzXML format using proteowizard (v2) and searched using ([…], the global proteome machine, ftp://ftp.thegpm.org/fasta/cRAP), against CtHtrA and Act1 and Bcas1 peptide sequences with an included decoy database of the reverse sequence for each protein. The search also included potential mass modifications accounting for the additional […] moieties on the N and C peptide termini, respectively. Matches with an expected ratio of <1 were considered identified. All raw data and mass spectra can be made available on request.

CtHtrA [3] = target: T1, CtHtrA; experiment: Oligomerisation assay (glutaraldehyde crosslinking, 3-8% TrisAcetate gel, silver stain); type: biochemical; settings: wild type CtHtrA 2 mg/ml, 100 mM sodium phosphate pH 7.0, 10 mins at 37°C, 0.5% glutaraldehyde fixation
Experimental: (§1) E. coli DegP proteolysis activation involves the transition from resting hexamers via trimers to 12- and 24-mers following the peptide activator binding to the PDZ1 binding cleft. CtHtrA oligomer formation induced by Act1 addition was examined after incubation for 10 mins at 37°C. The wild type and mutant proteins were incubated with either the ß-casein based activator peptide (Act1), or with whole insulin (intact), or in the absence of any activator as a control. CtHtrA incubated in the absence of any added activators formed 24-mers with some hexamers detected after 10 mins (Fig. 5). […] The R299W mutant was present as hexamer and 24-mer in the control with no activator. […] The L302N mutant was not detected in any higher oligomeric form under any conditions. L302N was detected as faint hexamer and trimer but mostly monomer under all tested conditions (not visible on these gels). […] I365D was detected as hexamers, trimers, 12-mers, and some 24-mers when incubated in the absence of activators.
(§2) The oligomerisation of HtrA into 12- and 24-mer complexes has been independently detected for E. coli HtrA (DegP). The oligomerisation of HtrA (DegP) was triggered by peptides from digested ß-casein [18]. Assays to detect whether CtHtrA and site directed mutant protein oligomerisation was triggered by substrates were conducted essentially as previously described (Merdanovic et al., 2010). Briefly, 2 mg/ml protein solutions in 100 mM sodium phosphate buffer pH 7.0 were pre-incubated to the required temperature. The ligands (activator peptide, or insulin) were added and at 10 min, and the proteins were fixed using 0.5% glutaraldehyde. Samples were fixed at room temperature for 2 min prior to addition of 1 M Tris pH 7.5 to remove any excess glutaraldehyde. Samples were incubated for another 10 min at room temperature prior to addition of SDS PAGE reducing loading buffer. The protein samples were examined on 3–8% TrisAcetate gradient polyacrylamide gels (Novex, Invitrogen) by silver staining. The proteins used in this study were not initially denatured by treatment with urea as, the refolding, formation of oligomers, and protease activity was never successfully detected with denatured CtHtrA. All assays were conducted in duplicate on three separate occasions with at least two gels of each experiment completed for each assay condition.

CtHtrA R299W = experiment: Oligomerisation assay, mutated protein; type: biochemical, Chlamydia trachomatis; settings: R299W mutant, 10 mins incubation
Experimental: as §1, §2

CtHtrA R373A = experiment: Oligomerisation assay, mutated protein; type: biochemical, Chlamydia trachomatis; settings: R373A mutant, 10 mins incubation
Experimental: as §1, §2

CtHtrA R373A/R299W = experiment: Oligomerisation assay, mutated protein; type: biochemical, Chlamydia trachomatis; settings: R373A/R299W mutant, 10 mins incubation
Excerpt: This activation was very similar to that observed for CtHtrA, and was the only condition during which any of the mutated proteins oligomerised in a similar profile to CtHtrA.
as §2, with “All assays were conducted in duplicate on three separate occasions with at least two gels of each experiment completed for each assay condition.” left out

Substance | Km (CtHtrA [1]) | Vmax (CtHtrA [1]) | Kcat/Km (CtHtrA [1]) | CtHtrA oligomer formation induced by activator (CtHtrA [3]) | also measured
DPMFKLL-pNA [Model E. coli substrate, L at P1] | 883 µM | 3.179 mM sec^−1, µM CtHtrA^−1 |  |  | 
MFKLI-pNA | 62 µM | 4.046 mM sec^−1, µM CtHtrA^−1 | 1084.8 M⁻¹ s⁻¹ |  | 
MCA-ENLHLPLPIIF-DNP [Bcas1, model ß-casein peptide substrate based on a ß-casein cleavage site] |  |  |  |  | cleavage sites observed by LC-MS-MS (CtHtrA [2]): Two cleavage sites
DPMFKQT-pNA [Model E. coli substrate, change P1 and P2] | 9.38 µM | 0.3165 mM sec^−1, µM CtHtrA^−1 | 542.2 M⁻¹ s⁻¹ |  | 
H-HDVLSPSLDEINVP-OH [PyKinC] |  |  |  | activated mainly trimer formation with some 12-mer present | 
DMPFKLT-pNA [Model E. coli substrate, T at P1] | 940 µM | 8.955 mM sec^−1, µM CtHtrA^−1 | 158.7 M⁻¹ s⁻¹ |  | 
H-AESNFKMLEIEAE-OH [CtL0043, C-terminal 13 residues of outer membrane ß-barrel CtL0043] |  |  |  | activated mainly trimer formation with some 12-mer present | 
insulin: previously demonstrated in vitro chaperone substrate of CtHtrA [reference compound] |  |  |  | activated to 24-mers with little hexamer visible | oligomer formation induced by activator (CtHtrA R299W): mainly hexamer; oligomer formation induced by activator (CtHtrA R373A): mainly detected as hexamer; oligomer formation induced by activator (CtHtrA R373A/R299W): did not form a similar profile of oligomers as wild-type CtHtrA
